Test results as given in the supplement of paper PMC11061612.

How the values were obtained:
Experiment in all cases: combination Emax (second highest fraction inhibited in the dose matrix, 72 h); higher = more inhibition; extreme values may be limits of the assay
[1] = test system: BE-13 (T-Lymphoblastic Leukemia)
Summary of the method: (§1)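 Cell lines grown in DMEM/F12 or RPMI with 10% FBS were plated in 1536-well plates and held 24 hours at 37°C, 5% CO2 before 72 hours of exposure to two-drug dose matrices, with DMSO typically at 0.2%. CellTiter-Glo 2.0 luminescence gave viability, which was converted to inhibition. Vehicle wells were set to 0 and blank wells to 1. Combination Emax is the second-highest inhibition in the matrix, and Bliss excess is the observed combination effect minus the expected EA + EB − EA·EB, where EA and EB are the single-agent effects.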

BE2-M17 (Neuroblastoma) = test system: BE2-M17 (Neuroblastoma)
Summary of the method: as §1

[2] = test system: CAL-33 (Oral Cavity Carcinoma)
Summary of the method: as §1

[3] = test system: Detroit562 (Head and Neck Carcinoma)
Summary of the method: as §1

GAMG (Glioblastoma) = test system: GAMG (Glioblastoma)
Summary of the method: as §1

[4] = test system: HuH-7 (Hepatocellular Carcinoma)
Summary of the method: as §1

[5] = test system: KMRC-20 (Kidney Carcinoma)
Summary of the method: as §1

KS-1 (Glioblastoma) = test system: KS-1 (Glioblastoma)
Summary of the method: as §1

[6] = test system: KYAE-1 (Esophageal Adenocarcinoma)
Summary of the method: as §1

[7] = test system: LCLC-97TM1 (Non-Small Cell Lung Carcinoma)
Summary of the method: as §1

MPP-89 (Mesothelioma) = test system: MPP-89 (Mesothelioma)
Summary of the method: as §1

[8] = test system: NCI-H1568 (Lung Adenocarcinoma)
Summary of the method: as §1

NCI-H2052 (Mesothelioma) = test system: NCI-H2052 (Mesothelioma)
Summary of the method: as §1

[9] = test system: NCI-H209 (Small Cell Lung Carcinoma)
Summary of the method: as §1

NCI-H2722 (Mesothelioma) = test system: NCI-H2722 (Mesothelioma)
Summary of the method: as §1

[10] = test system: NCI-H524 (Small Cell Lung Carcinoma)
Summary of the method: as §1

[11] = test system: OV-56 (Ovarian Carcinoma)
Summary of the method: as §1

[12] = test system: SNU-16 (Gastric Carcinoma)
Summary of the method: as §1

[13] = test system: SW1710 (Bladder Carcinoma)
Summary of the method: as §1

[14] = test system: YAPC (Pancreatic Carcinoma)
Summary of the method: as §1

SMILES	combination Emax [1]	combination Emax (BE2-M17 (Neuroblastoma))	combination Emax [2]	combination Emax [3]	combination Emax (GAMG (Glioblastoma))	combination Emax [4]	combination Emax [5]	combination Emax (KS-1 (Glioblastoma))	combination Emax [6]	combination Emax [7]	combination Emax (MPP-89 (Mesothelioma))	combination Emax [8]	combination Emax (NCI-H2052 (Mesothelioma))	combination Emax [9]	combination Emax (NCI-H2722 (Mesothelioma))	combination Emax [10]	combination Emax [11]	combination Emax [12]	combination Emax [13]	combination Emax [14]
NC1(C(=O)N[C@@H](CCO)c2ccc(Cl)cc2)CCN(c2ncnc3[nH]ccc23)CC1 [Capivasertib] + CC(=O)c1c(C)c2cnc(Nc3ccc(N4CCNCC4)cn3)nc2n(C2CCCC2)c1=O [Palbociclib] (first compound max 10 µM, 7x7, partner max 10 µM)	0.507	0.463	0.499	0.783	0.596	0.23	0.372	0.5	0.162	0.583	0.382	0.357	0.419	0.603	0.326	0.666	0.41	0.623	0.447	0.281
CN(CCO)CC[C@H](CSc1ccccc1)Nc1ccc(S(=O)(=O)NC(=O)c2ccc(N3CCC([C@@H](O)c4ccccc4-c4ccc(Cl)cc4)CC3)cc2)cc1S(=O)(=O)C(F)(F)F [AZD4320] + CN(C)CCCOc1ccc(-c2ccc3ncc4c(c3c2)n(C2CCOCC2)c(=O)n4C)cn1 [AZD0156] (first compound max 1 µM, 7x7, partner max 1 µM)	0.977	0.258	0.198	0.168	0.197	0.154	0.113	0.239	0.338	0.107	0.236	0.313	0.201	1	0.285	0.814	0.153	0.322	0.117	0.129
Cc1c2c(nn1C)CSCc1cc(n(C)n1)CSc1cc(c3ccccc3c1)OCCCc1c(C(=O)O)n(C)c3c-2c(Cl)ccc13 [AZD5991] + CN(C)CCCOc1ccc(-c2ccc3ncc4c(c3c2)n(C2CCOCC2)c(=O)n4C)cn1 [AZD0156] (first compound max 1 µM, 7x7, partner max 1 µM)	0.445	0.875	0.185	0.269	0.255	0.252	0.218	0.225	0.177	0.286	0.182	0.401	0.285	0.544	0.243	0.452	0.181	0.974	0.219	0.169
Cn1cnc2c(F)c(Nc3ccc(Br)cc3Cl)c(C(=O)NOCCO)cc21 [Selumetinib] + C[C@@H]1COCCN1C2=NC(=NC(=C2)C3(CC3)[S@](=N)(=O)C)C4=C5C=CNC5=NC=C4 [AZD6738] (first compound max 10 µM, 7x7, partner max 10 µM)	0.784	0.83	0.826	0.88	0.469	0.374	0.441	0.334	0.0615	0.756	0.329	0.574	0.395	0.878	0.277	0.681	0.29	0.966	0.26	0.22
CN(C)CCCOc1ccc(-c2ccc3ncc4c(c3c2)n(C2CCOCC2)c(=O)n4C)cn1 [AZD0156] + C=CCn1c(=O)c2cnc(Nc3ccc(N4CCN(C)CC4)cc3)nc2n1-c1cccc(C(C)(C)O)n1 [AZD1775] (first compound max 1 µM, partner max 1 µM)	0.964	0.57	0.643	0.606	0.266	0.262	0.596	0.39	0.426	0.828	0.522	0.419	0.376	0.84	0.268	0.792	0.19	0.919	0.337	0.251
Cn1cnc2c(F)c(Nc3ccc(Br)cc3Cl)c(C(=O)NOCCO)cc21 [Selumetinib] + CCN(CCO)CCCOc1ccc2c(Nc3cc(CC(=O)Nc4cccc(F)c4)[nH]n3)ncnc2c1 [AZD2811] (first compound max 10 µM, 7x7, partner max 1 µM)	0.735	0.644	0.653	0.743	0.52	0.293	0.29	0.298	0.0661	0.647	0.204	0.207	0.232	0.431	0.186	0.955	0.116	0.561	0.214	0.212
NC1(C(=O)N[C@@H](CCO)c2ccc(Cl)cc2)CCN(c2ncnc3[nH]ccc23)CC1 [Capivasertib] + CCN(CCO)CCCOc1ccc2c(Nc3cc(CC(=O)Nc4cccc(F)c4)[nH]n3)ncnc2c1 [AZD2811] (first compound max 10 µM, 7x7, partner max 1 µM)	0.733	0.493	0.897	0.892	0.669	0.225	0.398	0.547	0.156	0.686	0.435	0.22	0.427	0.428	0.515	0.992	0.249	0.663	0.36	0.233
C=CCn1c(=O)c2cnc(Nc3ccc(N4CCN(C)CC4)cc3)nc2n1-c1cccc(C(C)(C)O)n1 [AZD1775] + O=C(c1cc(Cc2n[nH]c(=O)c3ccccc23)ccc1F)N1CCN(C(=O)C2CC2)CC1 [Olaparib] (first compound max 1 µM, partner max 10 µM)	0.984	0.462	0.721	0.669	0.486	0.304	0.567	0.481	0.468	0.774	0.508	0.422	0.467	0.922	0.346	0.789	0.261	0.931	0.383	0.432
CC(=O)c1c(C)c2cnc(Nc3ccc(N4CCNCC4)cn3)nc2n(C2CCCC2)c1=O [Palbociclib] + Cc1c2c(nn1C)CSCc1cc(n(C)n1)CSc1cc(c3ccccc3c1)OCCCc1c(C(=O)O)n(C)c3c-2c(Cl)ccc13 [AZD5991] (first compound max 10 µM, 7x7, partner max 1 µM)	0.815	0.409	0.291	0.569	0.305	0.215	0.291	0.266	0.126	0.263	0.261	0.418	0.304	0.908	0.213	0.808	0.0925	0.973	0.29	0.288
C=CCn1c(=O)c2cnc(Nc3ccc(N4CCN(C)CC4)cc3)nc2n1-c1cccc(C(C)(C)O)n1 [AZD1775] + C[C@@H]1COCCN1C2=NC(=NC(=C2)C3(CC3)[S@](=N)(=O)C)C4=C5C=CNC5=NC=C4 [AZD6738] (first compound max 1 µM, partner max 10 µM)	1	0.957	0.935	0.902	0.596	0.487	0.763	0.66	0.588	0.891	0.737	0.487	0.488	0.944	0.403	0.97	0.849	0.989	0.713	0.492
CN(CCO)CC[C@H](CSc1ccccc1)Nc1ccc(S(=O)(=O)NC(=O)c2ccc(N3CCC([C@@H](O)c4ccccc4-c4ccc(Cl)cc4)CC3)cc2)cc1S(=O)(=O)C(F)(F)F [AZD4320] + C[C@@H]1COCCN1C2=NC(=NC(=C2)C3(CC3)[S@](=N)(=O)C)C4=C5C=CNC5=NC=C4 [AZD6738] (first compound max 1 µM, 7x7, partner max 10 µM)	1	0.93	0.964	0.905	0.694	0.725	0.721	0.68	0.51	0.87	0.794	0.522	0.439	1	0.503	0.939	0.836	0.994	0.705	0.251
Cc1c2c(nn1C)CSCc1cc(n(C)n1)CSc1cc(c3ccccc3c1)OCCCc1c(C(=O)O)n(C)c3c-2c(Cl)ccc13 [AZD5991] + Cc1cc2ncnn2cc1Nc1ncc2c(n1)n(C1CCOCC1)c(=O)n2C [AZD7648] (first compound max 1 µM, 7x7, partner max 10 µM)	0.406	0.9	0.302	0.422	0.382	0.185	0.295	0.253	0.194	0.385	0.343	0.232	0.394	0.431	0.234	0.501	0.189	0.999	0.177	0.248
